According to PubChem BioAssay AID1918933 (Molecular Pharmacology Branch, DTP, NCI, 2023):

Tested on: 186277-243-T-J2-PDC complex spheroid viability
Assay: Anticancer human tumor 186277-243-T-J2-PDC patient-derived colon adenocarcinoma cell line growth inhibition
Conditions: for IC50: curve of first compound; for viability, T/C: stronger effect = lower value
How it was run: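 Drug combinations with the LSD1 inhibitor iadademstat tested on tumor cells co-cultured as spheroids with endothelial cells and mesenchymal stem cells. Concentrations descended in half-log increments from clinical Cmax or 10 microM.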

[1] = second compound 0.1 µM, first compound 0.00316 µM
[2] = second compound 0.1 µM, first compound 0.01 µM
[3] = second compound 0.1 µM, first compound 0.0316 µM
[4] = second compound 0.1 µM, first compound 0.1 µM
[5] = second compound 0.316 µM, first compound 0.00316 µM
[6] = second compound 0.316 µM, first compound 0.01 µM
[7] = second compound 0.316 µM, first compound 0.0316 µM
[8] = second compound 0.316 µM, first compound 0.1 µM
[9] = second compound 1 µM, first compound 0.00316 µM
[10] = second compound 1 µM, first compound 0.01 µM
[11] = second compound 1 µM, first compound 0.0316 µM
[12] = second compound 1 µM, first compound 0.1 µM
[13] = second compound 3.16 µM, first compound 0.00316 µM
[14] = second compound 3.16 µM, first compound 0.01 µM
[15] = second compound 3.16 µM, first compound 0.0316 µM
[16] = second compound 3.16 µM, first compound 0.1 µM
[17] = second compound 10 µM, first compound 0.00316 µM
[18] = second compound 10 µM, first compound 0.01 µM
[19] = second compound 10 µM, first compound 0.0316 µM
[20] = second compound 10 µM, first compound 0.1 µM
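Further: 7 day exposure to compounds.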
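Wherever viability, T/C is given: 100% = DMSO vehicle control viability.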

SMILES | IC50 (second compound 0.1 µM) [nM] | IC50 (second compound 0.316 µM) [nM] | IC50 (second compound 1 µM) [nM] | IC50 (second compound 3.16 µM) [nM] | IC50 (second compound 10 µM) [nM] | viability, T/C [1] [%] | viability, T/C [2] [%] | viability, T/C [3] [%] | viability, T/C [4] [%] | viability, T/C [5] [%] | viability, T/C [6] [%] | viability, T/C [7] [%] | viability, T/C [8] [%] | viability, T/C [9] [%] | viability, T/C [10] [%] | viability, T/C [11] [%] | viability, T/C [12] [%] | viability, T/C [13] [%] | viability, T/C [14] [%] | viability, T/C [15] [%] | further results
CC1COCCN1c1cc(-c2ccnn2C)c2ccnc(-c3ccn[nH]3)c2n1 (stereo not given) + NC1CC1c1ccc(-c2cccc(O)c2)cc1 | < 3.16 | < 3.16 | < 3.16 | < 3.16 | < 3.16 | 20.3 | 15.9 | 9.71 | 8.39 | 19.9 | 16.7 | 10.2 | 8.74 | 20.7 | 15.4 | 10.2 | 7.9 | 22.6 | 17.3 | 10.9 | viability, T/C (second compound 0.1 µM, first compound 0.316 µM): 9.56%; viability, T/C (second compound 0.1 µM, first compound 1 µM): 6.55%; viability, T/C (second compound 0.316 µM, first compound 0.316 µM): 8.51%; viability, T/C (second compound 0.316 µM, first compound 1 µM): 6.53%; viability, T/C (second compound 1 µM, first compound 0.316 µM): 8.7%; viability, T/C (second compound 1 µM, first compound 1 µM): 5.94%; viability, T/C [16]: 8.9%; viability, T/C (second compound 3.16 µM, first compound 0.316 µM): 9.05%; viability, T/C (second compound 3.16 µM, first compound 1 µM): 6.86%; viability, T/C [17]: 18%; viability, T/C [18]: 15.5%; viability, T/C [19]: 10.1%; viability, T/C [20]: 8.33%; viability, T/C (second compound 10 µM, first compound 0.316 µM): 8.45%; viability, T/C (second compound 10 µM, first compound 1 µM): 7.35%
Cn1ncnc1C1c2n[nH]c(=O)c3cc(F)cc(c23)NC1c1ccc(F)cc1 (stereo not given) + NC1CCC(NC2CC2c2ccccc2)CC1 | > 100 | > 100 | > 100 | > 100 | > 100 | 111 | 107 | 109 | 104 | 109 | 108 | 103 | 96.8 | 110 | 107 | 99.6 | 97.8 | 109 | 103 | 99.3 | viability, T/C (second compound 0.1 µM, first compound 0.000316 µM): 109%; viability, T/C (second compound 0.1 µM, first compound 0.001 µM): 105%; viability, T/C (second compound 0.316 µM, first compound 0.000316 µM): 113%; viability, T/C (second compound 0.316 µM, first compound 0.001 µM): 107%; viability, T/C (second compound 1 µM, first compound 0.000316 µM): 111%; viability, T/C (second compound 1 µM, first compound 0.001 µM): 107%; viability, T/C (second compound 3.16 µM, first compound 0.000316 µM): 109%; viability, T/C (second compound 3.16 µM, first compound 0.001 µM): 99%; viability, T/C [16]: 104%; viability, T/C (second compound 10 µM, first compound 0.000316 µM): 107%; viability, T/C (second compound 10 µM, first compound 0.001 µM): 113%; viability, T/C [17]: 102%; viability, T/C [18]: 104%; viability, T/C [19]: 96%; viability, T/C [20]: 108%
